Measurements reported in article PMC6353850, “Supersensitive Odorant Receptor Underscores Pleiotropic Roles of Indoles in Mosquito Ecology” (Frontiers in Cellular Neuroscience, 2019).
Counter-ions that a name gives are not always drawn. Like-named read-outs stand apart in the source and are kept apart here.

Experiments:
[1] = tested on: OR65-ORco; parameters: method as in Wang et al., 2010; conditions: Anopheles gambiae OR65-ORco; kairomone receptor; ref Wang et al., 2010; cited from earlier work
[2] = target: AaegOR9 (Aedes aegypti, UniProt Q177X5); assay: Two-electrode voltage clamp of Xenopus oocytes expressing AaegOR9-ORco (tuning curve and concentration-response); assay type: cell-based; conditions: for Ligand potency in AaegOR9 tuning curve (in words) / AaegOR9 response relative to indole (tuning curve): 500 nM odorant; for Ligand potency in AaegOR9 tuning curve (in words): panel of 31 indole derivatives; for Rank according to potency (No.): AaegOR9 tuning curve of Figure 1, 500 nM, 1 = most potent of 31; for AaegOR9 response relative to indole (tuning curve): responses normalized to indole, n = 10
AaegOR9, sequence (Q178U6 whole entry): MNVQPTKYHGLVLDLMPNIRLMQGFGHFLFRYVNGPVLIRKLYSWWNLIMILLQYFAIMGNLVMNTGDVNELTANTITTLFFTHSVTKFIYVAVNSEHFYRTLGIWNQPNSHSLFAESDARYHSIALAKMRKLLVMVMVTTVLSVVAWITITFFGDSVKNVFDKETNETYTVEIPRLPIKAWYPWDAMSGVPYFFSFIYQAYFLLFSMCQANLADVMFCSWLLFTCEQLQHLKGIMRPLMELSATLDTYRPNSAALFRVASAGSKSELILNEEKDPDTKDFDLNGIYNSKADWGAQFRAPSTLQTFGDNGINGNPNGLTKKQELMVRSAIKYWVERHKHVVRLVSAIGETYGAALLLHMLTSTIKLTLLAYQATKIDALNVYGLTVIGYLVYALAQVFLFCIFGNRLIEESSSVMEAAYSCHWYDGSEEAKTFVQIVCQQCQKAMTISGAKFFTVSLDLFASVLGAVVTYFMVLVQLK
AaegOR9, sequence (Q177X5 entry or part of it): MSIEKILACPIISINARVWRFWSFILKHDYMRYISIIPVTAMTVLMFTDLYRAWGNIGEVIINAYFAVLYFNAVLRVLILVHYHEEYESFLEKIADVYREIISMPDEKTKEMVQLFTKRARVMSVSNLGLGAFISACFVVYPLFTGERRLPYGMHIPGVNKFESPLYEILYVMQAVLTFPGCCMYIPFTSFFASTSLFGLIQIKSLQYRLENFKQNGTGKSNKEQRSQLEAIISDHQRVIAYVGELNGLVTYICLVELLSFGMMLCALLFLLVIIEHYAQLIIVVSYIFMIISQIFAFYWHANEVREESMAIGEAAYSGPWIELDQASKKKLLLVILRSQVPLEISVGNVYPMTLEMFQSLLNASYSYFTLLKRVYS
Method: The methodologies and protocols have been described in details elsewhere (Bohbot and Dickens, [2009]). AaegOr9 and Aaeg-ORco cRNAs (Bohbot et al., [2011]) were synthesized from linearized pSP64DV expression vectors using the mMESSAGE mMACHINE® SP6 kit (Life Technologies). Stage V-VII oocytes were harvested from Xenopus laevis females, mechanically separated, treated with collagenase (8 mg/mL, 30 min, 18°C) and rinsed in washing solution (96 mM NaCl, 2 mM KCl, 5 mM MgCl2 and 5 mM HEPES, pH 7.6). Oocytes were microinjected with 27.6 ng AaegOr9 and AaegORco cRNAs, incubated at 18°C for 3–4 days in ND96 solution (96 mM NaCl, 2 mM KCl, 5 mM MgCl2, 0.8 mM CaCl2 and 5 mM HEPES, pH 7.6), supplemented with 5% dialyzed horse serum, 50 μg/mL tetracycline, 100 μg/mL streptomycin and 550 μg/mL sodium pyruvate. Whole-cell currents were recorded using the two-microelectrode voltage-clamp technique. During recording sessions, the holding potential was maintained at −80 mV using an OC-725C oocyte clamp (Warner Instruments, LLC, Hamden, CT, USA). Oocytes placed in a RC-3Z oocyte recording chamber (Warner Instruments, LLC, Hamden, CT, USA) were exposed to odorants for 8 s. Current was allowed to return to baseline between odorant applications. Data acquisition and concentration-response analyses were carried out with a Digidata 1550A and the pCLAMP10 software (Molecular Devices, Sunnyvale, CA, USA), and analyzed using GraphPad Prism 7 (GraphPad Software Inc., La Jolla, CA, USA). Stock concentration of odorants (10^−2 M) were dissolved in ringer solution containing 2% dimethyl sulfoxide (DMSO) in order to solubilize the hydrophobic indolic compounds.
The response profile was established using multiple sessions, each including six compounds at a time and indole as an internal reference. […] All the response values were normalized to the indole reference in each recording session (Supplementary Figure 1).
For the establishment of the concentration-response curves, oocytes were exposed to increasing concentrations of indole, skatole and indole-3-carboxaldehyde (I3C; Supplementary Figure 2). Quantitative characterization of OR sensitivity was estimated using the averaged effective concentration at 50% of the maximal response (EC50) over the sample population. The data to establish the concentration response curve and EC50 of AaegOR10-skatole was extracted from a previous study (Bohbot and Dickens, [2012]).
We also included indole and skatole as references (Bohbot et al., [2011]). The screen was carried out using a low odorant concentration (500 nM) in order to mitigate the caveats associated with high ligand concentrations, including receptor adaptation, antagonist effects and technical artifacts such as broad molecular receptive ranges (Bohbot and Pitts, [2015]).

[3] = tested on: OR56-ORco; parameters: method as in Tanaka et al., 2009; conditions: Bombyx mori OR56-ORco; kairomone receptor; ref Tanaka et al., 2009; cited from earlier work
[4] = tested on: OR11-ORco; parameters: method as in Wanner et al., 2007; conditions: Apis mellifera OR11-ORco; pheromone receptor; ref Wanner et al., 2007; cited from earlier work
[5] = tested on: OR10-ORco; parameters: method as in Xu et al., 2012; conditions: Amyelois transitella OR10-ORco; pheromone receptor; ref Xu et al., 2012; cited from earlier work
[6] = tested on: OR10-ORco; parameters: method as in Hughes et al., 2010; conditions: Culex quinquefasciatus OR10-ORco; kairomone receptor; ref Hughes et al., 2010; cited from earlier work
[7] = tested on: AaegOR10; conditions: Aedes aegypti OR10-ORco; kairomone receptor; ref Bohbot et al., 2012; cited from earlier work
[8] = Water solubility; assay type: physicochemical; conditions: skatole vs indole
[9] = tested on: OR03-ORco; parameters: method as in Liu et al., 2014; conditions: Spodoptera exigua OR03-ORco; kairomone receptor; ref Liu et al., 2014; cited from earlier work
[10] = tested on: OR06-Orco; parameters: method as in Wanner et al., 2010; conditions: Ostrinia nubilalis OR06-Orco; pheromone receptor; ref Wanner et al., 2010; cited from earlier work
[11] = tested on: OR03-ORco; parameters: method as in Leary et al., 2012; conditions: Ostrinia furnacalis OR03-ORco; pheromone receptor; ref Leary et al., 2012; cited from earlier work
[12] = tested on: OR13-ORco; parameters: method as in Wang et al., 2011; conditions: Heliothis virescens OR13-ORco; pheromone receptor; ref Wang et al., 2011; cited from earlier work
[13] = tested on: OR08-ORco; parameters: method as in Bohbot et al., 2009; conditions: Aedes aegypti OR08-ORco; kairomone receptor; ref Bohbot et al., 2009; cited from earlier work
[14] = tested on: OR13-ORco; parameters: method as in Liu et al., 2013; conditions: Helicoverpa armigera OR13-ORco; pheromone receptor; ref Liu et al., 2013; cited from earlier work
[15] = tested on: OR01-ORco; parameters: method as in Mitsuno et al., 2008; conditions: Plutella xyllostella OR01-ORco; pheromone receptor; ref Mitsuno et al., 2008; cited from earlier work
[16] = tested on: OR04-ORco; parameters: method as in Sun et al., 2013; conditions: Plutella xyllostella OR04-ORco; pheromone receptor; ref Sun et al., 2013; cited from earlier work
[17] = tested on: OR12-ORco; parameters: method as in Zhang et al., 2013; conditions: Spodoptera litura OR12-ORco; kairomone receptor; ref Zhang et al., 2013; cited from earlier work
[18] = tested on: OR01-ORco; parameters: method as in Xu et al., 2012; conditions: Bombyx mori OR01-ORco; pheromone receptor; ref Xu et al., 2012; cited from earlier work

SMILES	Rank according to potency (No.) [2]	other results
C=CCc1ccc(O)c(OC)c1 [Eugenol]	–	EC50 [1]: 222 nM
OCc1c[nH]c2ccccc12 [Indole-3-carbinole]	19	Ligand potency in AaegOR9 tuning curve (in words) [2]: among the least potent ligands
ON=CCc1c[nH]c2ccccc12 [Indole-3-acetaldoxime]	21	–
C[C@H](NC(=O)Cc1c[nH]c2ccccc12)C(=O)O [Indole-3-acetyl-L-alanine]	17	–
CC/C=C\CC1=C(C)CCC1=O [Z-jasmone]	–	EC50 [3]: 6000 nM
COc1ccc2c3c([nH]c2c1)C(C)=NCC3 [Harmaline]	20	–
CC(=O)CCCCCC=CC(=O)O [9-oxo-2-decenoic acid]	–	EC50 [4]: 280 nM
O=C(O)c1c[nH]c2ccccc12 [Indole-3-carboxylic acid]	11	–
O=C(O)Cc1c[nH]c2ccccc12 [3-Indole acetic acid]	28	–
NC(=O)Cc1c[nH]c2ccccc12 [Indole-3-acetamide]	23	–
Oc1ccc2[nH]ccc2c1 [5-Hydroxyindole]	9	–
O=C1Cc2ccccc2N1 [2-Oxindole]	10	–
CC/C=C\C=C/CCCCCCCCCC=O [Z1 1Z13-16:Ald]	–	EC50 [5]: 499 nM
Cc1c[nH]c2ccccc12 [skatole, 3-methylindole]	1	EC50 [6]: 90 nM; EC50 [7]: 109 nM; Ligand potency in AaegOR9 tuning curve (in words) [2]: most potent ligand; AaegOR9 response relative to indole (tuning curve) [2]: five times higher than indole; AaegOR9 response relative to indole (tuning curve) ([2]; listed as Skatole): five times more potent than indole; EC50 ([2]; AaegOR9, concentrations 100 pM to 10 μM): ~5 nM; Fold higher sensitivity of AaegOR9 to skatole than to indole (EC50 ratio) ([2]; AaegOR9, skatole vs indole): 176; EC50 ([2]; Aedes aegypti OR9-ORco, kairomone receptor, This study): 4.8 nM; Concentration range activating AaegOR9 ([2]; selective and reversible activation): high picomolar (below 1 nM) to low nanomolar (between 1 and 10 nM); Water solubility relative to indole [8]: seven times less water soluble
O=C(O)C=Cc1c[nH]c2ccccc12 [3-Indoleacrylic acid]	18	–
O=Cc1c[nH]c2ccccc12 [I3C, indole-3-carboxaldehyde]	2	Ligand potency in AaegOR9 tuning curve (in words) [2]: next most potent ligands
c1ccc2ncccc2c1 [Quinoline]	14	–
O=C(O)CCc1c[nH]c2ccccc12 [Indole-3-propionic acid]	15	–
N#CCc1c[nH]c2ccccc12 [3-indole acetonitrile]	4	Ligand potency in AaegOR9 tuning curve (in words) [2]: next most potent ligands
C=CC(=C)CC/C=C(\C)CCC=C(C)C [E-b-farnesene]	–	EC50 [9]: 300 nM
COC(=O)c1c[nH]c2ccccc12 [Methyl indole-3-carboxylate]	5	Ligand potency in AaegOR9 tuning curve (in words) [2]: next most potent ligands

SMILES	Rank according to potency (No.) [2]	other results
CC/C=C\CCCCCCCCCCOC(C)=O [Z1 1-14:OAc]	–	EC50 [10]: 860 nM; EC50 [11]: 25 nM
CCCC/C=C\CCCCCCCC=O [Z9-14:Ald]	–	EC50 [12]: 240 nM
C=C[C@H](O)CCCCC [(R)-(−)-1-octen-3-ol]	–	EC50 [13]: 158 nM
NCCc1c[nH]c2ccc(O)cc12 [Serotonin]	29	–
CN(C)Cc1c[nH]c2ccccc12 [Gramine]	27	Ligand potency in AaegOR9 tuning curve (in words) [2]: among the least potent ligands
O=C1/C(=C2\Nc3ccccc3C2=O)Nc2ccccc21 [Indigo]	26	–
CCCC/C=C\CCCCCCCCCC=O [Z1 1-16:Ald]	–	EC50 [14]: 3400 nM; EC50 [15]: 880 nM; EC50 [12]: 367 nM
c1ccc2c(c1)[nH]c1cnccc12 [Norharmane]	13	–
NCCc1c[nH]c2ccccc12 [Tryptamine]	24	–
O=C1Nc2ccccc2C1=O [Isatin]	16	–
O=C(O)CCCc1c[nH]c2ccccc12 [Indole-3-butyric acid]	22	–
CCCC/C=C\CCCCCCCCOC(C)=O [Z9-14: OAc]	–	EC50 [16]: 243 nM
Oc1cccc2[nH]ccc12 [4-Hydroxyindole]	7	–
CC/C=C\CCOC(C)=O [Z3-6:OAc]	–	EC50 [17]: 339 nM
c1ccc2c(Cc3c[nH]c4ccccc34)c[nH]c2c1 [3,3’-Diindolemethane]	8	–
CCC/C=C\C=C\CCCCCCCCCO [E10,Z12-16:OH (Bombykol), Bombykol]	–	EC50 [18]: 45.4 nM
OCCc1c[nH]c2ccccc12 [3-(2-Hydroxyethyl) indole]	12	–
COC(=O)Cc1c[nH]c2ccccc12 [Methyl indole-3-acetate]	25	–
Cc1nccc2c1[nH]c1ccccc12 [Harmane]	6	–
O=S(=O)(O)Oc1c[nH]c2ccccc12 [Indoxyl sulfate potassium salt]	30	–
COc1ccc2[nH]c3c(c2c1)CCNC3 [Pinoline]	31	–
